Laboratory results reported in paper PMC10732398 (PLOS Pathogens, 2023).

Tested on: ⍺4β7
Assay: SPR: inhibition by linear peptides of soluble ⍺4β7 binding to a MAdCAM-Ig surface
Settings: Fig 7F, 7G
Text: To determine if this is the case, we employed an SPR -based assay. Biosensor surfaces were coated with either CD4 D1D2 or a 42 aa cyclic V2 peptide derived from the subtype E 92TH023 gp120 (cV2 92TH023). A third surface coated with MAdCAM-Ig was employed as a positive control. Soluble ⍺4β7 was passed over these surfaces. We then evaluated the capacity of staggered 15 aa peptides that span either CD4 D2 or gp120 V2 to inhibit this interaction (Fig 7A).
Fig 7 Reciprocal inhibition of gp120 V2 and CD4 binding to ⍺4β7 by D2 and V2 peptides. SPR measurements of soluble ⍺4β7 (analyte) binding to biosensor surfaces coated with CD4 D1D2, 92TH023 cyclic peptide, or MAdCAM-Ig in the absence or presence of either CD4 D2 or gp120 V2 peptides, as indicated. (A) List of overlapping 15 aa peptides corresponding to residues 157–187 of CD4 and residues 158–192 of gp120 V2 (subtype B consensus sequence). (B) Binding of ⍺4β7 to sCD4 D1D2 +/- CD4 D2 peptides. X-axis indicates ⍺4β7 mass bound (RU) at the end of the association phase. (C) Binding of ⍺4β7 to 92TH023 +/- gp120 V2 peptides. (D) Binding of ⍺4β7 to sCD4 D1D2 +/- gp120 V2 peptides. (E) Binding of ⍺4β7 to 92TH023 +/- CD4 D2 peptides. […]
Experiments were performed using a Biacore 3000 instrument (Cytiva Life Sciences) using CM4 or CM5 sensor chips. The data were evaluated using BIAevaluation 4.1.1 software (Cytiva Life Sciences). […]

Sequence: QKKVEFKIDIVVLA [CD4 P42, linear CD4 D2 peptide, residues 165-178, G β-strand]
- inhibition of MAdCAM-Ig binding to ⍺4β7 (in words): inhibit MAdCAM-Ig binding to ⍺4β7
